Laboratory results from patent US11286236B2, “Compound, agent and composition for the suppression of cancer growth” (Vector Vitale IP LLC, priority 2018, dated 2022).

Tests used:
[1] = test system: Ehrlich ascites carcinoma; assay: In vivo antitumor activity against Ehrlich ascites carcinoma; set-up: species or system mouse; settings: for Number of animals in the group with tumor / Number of animals in the group without tumor: 14 mice per group
Method: Outbred mice were administered Ehrlich ascites carcinoma cells (EAC) intraperitoneally (IP) at a dose of 2.5×10^5 cells in 0.25 ml of normal saline solution. The compounds under study, 1)^85RbeE2, was dissolved in deuterium-depleted water and 2) Cisplatin (Teva, the Netherlands), was dissolved in normal saline solution. The drugs were administered starting from the first day after mice were inoculated with tumor cells, using a microinjection syringe, at the following doses: 1)^85Rbe-E2 at a dose of 750 μg/mouse (weighing 20 g) in a volume of 0.3 ml as 3 IP injections (1 injection—250 μg/mouse) on the 1st, 4th and 7th day of the experiment; 2) Cisplatin at a dose of 4.5 mg/kg or 1.5 mg/kg as 3 IP injections on the 2nd, 5th and 8th day of the experiment. The dynamics of tumor growth in the experimental animals was observed (based on the volume of ascites in the peritoneal cavity) after the tumor cell inoculation and for 31 days of the experiment. On the 15th and 22nd day after IP administration of tumor cells, all the fluid accumulated in each animal's abdomen was extracted and the total number of live/dead cells in each mouse was determined. In addition, some mice were used to assess a survival rate of animals in the experiment.
Laboratory animals. 84 outbred female 10 to 12-week old mice weighing 22-26 g were used in the experimental study. The animals were obtained from the animal vivarium at R.E. Kavetsky IEPOR NASU. […] The animals were maintained in plastic cages, under natural light-dark cycles, fed standard food and allowed free access to food and tap water.
Tumor model. Ascites strain of Ehrlich ascites carcinoma maintained on outbred mice obtained from the cell and tissue line bank at R.E. Kavetsky IEPOR NASU was used in the experiment. To prepare the strain for injection, tumor cells derived from ascitic fluid were placed in normal saline solution and cellularity of the suspension was assessed in a hemocytometer and adjusted to a concentration of 1·10^6 cells/ml with saline solution. The tumor cells were inoculated by injecting 250 mcl of cell suspension from the tumor (0.25×10^6 cells/mouse) into the peritoneal cavity of laboratory animals.
The drugs were administered IP every other day, using a microinjection syringe, at doses specified above as a series of 3 injections of each compound according to the following scheme: ^85Rbe-E2 at a dose of 250 μg/mouse weighing 20 g+CP at a dose of […] 24 hours later (for groups (EAC+CP(4.5)) and (EAC+^85Rbe-E2+CP(4.5)) or […] (for groups (EAC+CP(1.5)) and (EAC+^85Rbe-E2+CP(1.5)) in a volume of 0.25 ml of saline solution (6 injections in total during 8 days).
The tumor growth dynamics in the laboratory animals was observed by daily control of the volume of ascitic fluid in the abdominal cavity of mice starting from the tumor inoculation and for 31 days of the experiment. The dynamics of ascites growth both in control and experimental groups was assessed visually using a 10-point scale, where 0 points were the absence of tumor growth and 10 points were the maximum increase in the size of the abdomen of the mouse with ascites (one point was 0.6 cm of the mean diameter of the mouse abdomen filled with the fluid).
Furthermore, on the 15th and 22nd day after intraperitoneal injection of tumor cells, all ascitic fluid was removed from the abdomen in 2 or 3 animals from each group by washing their peritoneal cavity with saline solution, and live/dead EAC cells were counted in each mouse using the traditional vital dye trypan blue (HyClon, USA) and a hemocytometer.
X=((a)/80)×10^6, where X is the number of cells in 1 ml and a is the number of cells counted in 5 large diagonal squares of the hemocytometer.
7 or 8 mice from each group were used to assess their survival in the experiment. The total lifespan observation time was 31 days from the moment of inoculation of tumor cells.
Statistical data processing. […]

[2] = test system: Mouse B16 melanoma cells (MM-4 cell line); assay: Cytotoxic/cytostatic activity of E2+85Rbe and antitumor drug added simultaneously; format: cell-based
Method: The effects of the complex action of various doses of the investigated substances were evaluated using the concept of synergistic, additive and antagonistic effects of the drugs. The mathematics are detailed below. […] The effects were calculated using the Chou-Talalay method according to the following equation (“CI” refers to the “combination index”) (see T.-C. […] Where both the ^85Rb-enriched rubidium salt (referred to as “E2+^85Rbe”) and an AD were administered, they were administered simultaneously.

[3] = CP 1.5 mg/kg IP total (combination: + 85Rbe-E2 750 μg/mouse)
[4] = CP 4.5 mg/kg IP total (combination: + 85Rbe-E2 750 μg/mouse)
[5] = Day 15, CP 1.5 mg/kg IP total (combination: + 85Rbe-E2 750 μg/mouse)
[6] = Day 15, CP 4.5 mg/kg IP total (combination: + 85Rbe-E2 750 μg/mouse)
[7] = Day 22, CP 1.5 mg/kg IP total (combination: + 85Rbe-E2 750 μg/mouse)
[8] = Day 22, CP 4.5 mg/kg IP total (combination: + 85Rbe-E2 750 μg/mouse)

## N.N.[Cl][Pt][Cl] [cisplatin]
[1]; [3]
  Animals without tumor, %: 0%
  Number of animals in the group with tumor: 14
  Number of animals in the group without tumor: 0
[1]; [4]
  Animals without tumor, %: 0%
  Number of animals in the group with tumor: 14
  Number of animals in the group without tumor: 0
[1]; [5]
  Number of dead cells/mouse, %: 9.5 ± 2.8%
  Number of live cells/mouse, ×10^6 (M ± m): 1188 ± 116 ×10^6
  Volume of ascites: 5.2 ± 1.3 mL
[1]; [6]
  Number of dead cells/mouse, %: <1%
  Number of live cells/mouse, ×10^6 (M ± m): 33.5 ± 11 ×10^6
  Volume of ascites: 0.4 ± 0.1 mL
[1]; [7]
  Number of dead cells/mouse, %: 11 ± 1%
  Number of live cells/mouse, ×10^6 (M ± m): 1154 ± 429 ×10^6
  Volume of ascites: 14.4 ± 8.7 mL
[1]; [8]
  Number of dead cells/mouse, %: <3%
  Number of live cells/mouse, ×10^6 (M ± m): 430 ± 250 ×10^6
  Volume of ascites: 2.8 ± 1.3 mL
[1]; cisplatin 1.5 mg/kg (combination: + 85Rbe-E2)
  Last day with statistically significant inhibition of EAC growth vs control: 9 days
[1]; cisplatin 1.5 mg/kg mono-regime, only up to the 10th day
  Suppression of tumor growth vs control: 32%
[1]; cisplatin 4.5 mg/kg (combination: + 85Rbe-E2 total 750 mg/mouse as printed), throughout the observation period
  Suppression of tumor growth / decrease in tumor size vs control, average: 51.3%
[1]; day 0, CP 1.5 mg/kg IP total (combination: + 85Rbe-E2 750 μg/mouse)
  Survival, percent of mice: 100%
[1]; day 0, CP 4.5 mg/kg IP total (combination: + 85Rbe-E2 750 μg/mouse)
  Survival, percent of mice: 100%
[1]; day 9, CP 1.5 mg/kg IP total (combination: + 85Rbe-E2 750 μg/mouse IP total)
  Size of mouse abdomen, points: 3.8 ± 0.8 points
[1]; day 9, CP 4.5 mg/kg IP total (combination: + 85Rbe-E2 750 μg/mouse IP total)
  Size of mouse abdomen, points: 2.6 ± 0.2 points
[1]; day 13, CP 1.5 mg/kg IP total (combination: + 85Rbe-E2 750 μg/mouse IP total)
  Size of mouse abdomen, points: 5.9 ± 1.1 points
[1]; day 13, CP 4.5 mg/kg IP total (combination: + 85Rbe-E2 750 μg/mouse IP total)
  Size of mouse abdomen, points: 3.2 ± 0.3 points
[1]; day 15, CP 1.5 mg/kg IP total (combination: + 85Rbe-E2 750 μg/mouse IP total)
  Size of mouse abdomen, points: 6.9 ± 0.4 points
[1]; day 15, CP 1.5 mg/kg IP total (combination: + 85Rbe-E2 750 μg/mouse)
  Survival, percent of mice: 100%
[1]; day 15, CP 4.5 mg/kg (combination: + 85Rbe-E2), p<0.05
  Number of live cells in ascites as fraction of the control: approximately 1/53
[1]; day 15, CP 4.5 mg/kg IP total (combination: + 85Rbe-E2 750 μg/mouse IP total)
  Size of mouse abdomen, points: 3.1 ± 0.4 points
[1]; day 15, CP 4.5 mg/kg IP total (combination: + 85Rbe-E2 750 μg/mouse)
  Survival, percent of mice: 100%
[1]; day 15, EAC+CP(4.5) group, p<0.05
  Number of live cells in ascites, times smaller than in the control: 52 times
[1]; day 17, CP 1.5 mg/kg IP total (combination: + 85Rbe-E2 750 μg/mouse IP total)
  Size of mouse abdomen, points: 7.4 ± 0.6 points
[1]; day 17, CP 1.5 mg/kg IP total (combination: + 85Rbe-E2 750 μg/mouse)
  Survival, percent of mice: 100%
[1]; day 17, CP 4.5 mg/kg IP total (combination: + 85Rbe-E2 750 μg/mouse IP total)
  Size of mouse abdomen, points: 3.4 ± 0.4 points
[1]; day 17, CP 4.5 mg/kg IP total (combination: + 85Rbe-E2 750 μg/mouse)
  Survival, percent of mice: 87.5%
[1]; day 19, CP 1.5 mg/kg IP total (combination: + 85Rbe-E2 750 μg/mouse)
  Survival, percent of mice: 100%
[1]; day 19, CP 4.5 mg/kg IP total (combination: + 85Rbe-E2 750 μg/mouse)
  Survival, percent of mice: 87.5%
[1]; day 20, CP 1.5 mg/kg IP total (combination: + 85Rbe-E2 750 μg/mouse IP total)
  Size of mouse abdomen, points: 8.1 ± 0.6 points
[1]; day 20, CP 4.5 mg/kg IP total (combination: + 85Rbe-E2 750 μg/mouse IP total)
  Size of mouse abdomen, points: 4.8 ± 0.5 points
[1]; day 22, CP 1.5 mg/kg IP total (combination: + 85Rbe-E2 750 μg/mouse IP total)
  Size of mouse abdomen, points: 8.2 ± 0.8 points
[1]; day 22, CP 1.5 mg/kg IP total (combination: + 85Rbe-E2 750 μg/mouse)
  Survival, percent of mice: 100%
[1]; day 22, CP 4.5 mg/kg IP total (combination: + 85Rbe-E2 750 μg/mouse IP total)
  Size of mouse abdomen, points: 4.7 ± 0.7 points
[1]; day 22, CP 4.5 mg/kg IP total (combination: + 85Rbe-E2 750 μg/mouse)
  Survival, percent of mice: 75%
[1]; day 24, CP 1.5 mg/kg IP total (combination: + 85Rbe-E2 750 μg/mouse IP total)
  Size of mouse abdomen, points: 8.6 ± 0.8 points
[1]; day 24, CP 1.5 mg/kg IP total (combination: + 85Rbe-E2 750 μg/mouse)
  Survival, percent of mice: 100%
[1]; day 24, CP 4.5 mg/kg IP total (combination: + 85Rbe-E2 750 μg/mouse IP total)
  Size of mouse abdomen, points: 5.2 ± 0.9 points
[1]; day 24, CP 4.5 mg/kg IP total (combination: + 85Rbe-E2 750 μg/mouse)
  Survival, percent of mice: 75%
[1]; day 25, CP 1.5 mg/kg IP total (combination: + 85Rbe-E2 750 μg/mouse)
  Survival, percent of mice: 100%
[1]; day 25, CP 4.5 mg/kg IP total (combination: + 85Rbe-E2 750 μg/mouse)
  Survival, percent of mice: 75%
[1]; day 26, CP 1.5 mg/kg IP total (combination: + 85Rbe-E2 750 μg/mouse)
  Survival, percent of mice: 100%
[1]; day 26, CP 4.5 mg/kg IP total (combination: + 85Rbe-E2 750 μg/mouse)
  Survival, percent of mice: 75%
[1]; day 27, CP 1.5 mg/kg IP total (combination: + 85Rbe-E2 750 μg/mouse IP total)
  Size of mouse abdomen, points: 8.4 ± 1 points
[1]; day 27, CP 1.5 mg/kg IP total (combination: + 85Rbe-E2 750 μg/mouse)
  Survival, percent of mice: 87.5%
[1]; day 27, CP 4.5 mg/kg IP total (combination: + 85Rbe-E2 750 μg/mouse IP total), listed as CP
  Size of mouse abdomen, points: 5.2±0.9 points
[1]; day 27, CP 4.5 mg/kg IP total (combination: + 85Rbe-E2 750 μg/mouse)
  Survival, percent of mice: 75%
[1]; day 28, CP 1.5 mg/kg IP total (combination: + 85Rbe-E2 750 μg/mouse)
  Survival, percent of mice: 75%
[1]; day 28, CP 4.5 mg/kg IP total (combination: + 85Rbe-E2 750 μg/mouse)
  Survival, percent of mice: 75%
[1]; day 29, CP 1.5 mg/kg IP total (combination: + 85Rbe-E2 750 μg/mouse IP total)
  Size of mouse abdomen, points: 8.4 ± 1 points
[1]; day 29, CP 1.5 mg/kg IP total (combination: + 85Rbe-E2 750 μg/mouse), listed as CP
  Survival, percent of mice: 50%
[1]; day 29, CP 4.5 mg/kg IP total (combination: + 85Rbe-E2 750 μg/mouse IP total)
  Size of mouse abdomen, points: 5.4 ± 0.9 points
[1]; day 29, CP 4.5 mg/kg IP total (combination: + 85Rbe-E2 750 μg/mouse), listed as CP
  Survival, percent of mice: 75%
[1]; day 31, CP 1.5 mg/kg IP total (combination: + 85Rbe-E2 750 μg/mouse IP total)
  Size of mouse abdomen, points: 7.9 ± 1.4 points
[1]; day 31, CP 1.5 mg/kg IP total (combination: + 85Rbe-E2 750 μg/mouse), listed as CP
  Survival, percent of mice: 37.5%
[1]; day 31, CP 4.5 mg/kg IP total (combination: + 85Rbe-E2 750 μg/mouse IP total)
  Size of mouse abdomen, points: 6 ± 1.3 points
[1]; day 31, CP 4.5 mg/kg IP total (combination: + 85Rbe-E2 750 μg/mouse), listed as CP
  Survival, percent of mice: 62.5%
[2]; cisplatinum 0.5 μg/ml alone
  % surviving MM-4 cells: 84 ± 3.3%
[2]; cisplatinum 1 μg/ml alone
  % surviving MM-4 cells: 51.7 ± 6.9%
[2]; cisplatinum 2.5 μg/ml alone
  % surviving MM-4 cells: 24.6 ± 5.2%
[2]; cisplatinum 5 μg/ml alone
  % surviving MM-4 cells: 13.8 ± 1.2%
[2]; cisplatinum 10 μg/ml alone
  % surviving MM-4 cells: 2.6 ± 1.4%
